{"source": "ChEMBL document CHEMBL5042497", "about": "“Design, synthesis, and biological evaluation of carbamate derivatives of N-salicyloyl tryptamine as multifunctional agents for the treatment of Alzheimer's disease” (Eur J Med Chem, 2022)", "key": {"Acetylcholinesterase [1]": {"target": "T1, Acetylcholinesterase (Electrophorus electricus, UniProt O42275)", "T1 sequence (O42275 whole entry)": "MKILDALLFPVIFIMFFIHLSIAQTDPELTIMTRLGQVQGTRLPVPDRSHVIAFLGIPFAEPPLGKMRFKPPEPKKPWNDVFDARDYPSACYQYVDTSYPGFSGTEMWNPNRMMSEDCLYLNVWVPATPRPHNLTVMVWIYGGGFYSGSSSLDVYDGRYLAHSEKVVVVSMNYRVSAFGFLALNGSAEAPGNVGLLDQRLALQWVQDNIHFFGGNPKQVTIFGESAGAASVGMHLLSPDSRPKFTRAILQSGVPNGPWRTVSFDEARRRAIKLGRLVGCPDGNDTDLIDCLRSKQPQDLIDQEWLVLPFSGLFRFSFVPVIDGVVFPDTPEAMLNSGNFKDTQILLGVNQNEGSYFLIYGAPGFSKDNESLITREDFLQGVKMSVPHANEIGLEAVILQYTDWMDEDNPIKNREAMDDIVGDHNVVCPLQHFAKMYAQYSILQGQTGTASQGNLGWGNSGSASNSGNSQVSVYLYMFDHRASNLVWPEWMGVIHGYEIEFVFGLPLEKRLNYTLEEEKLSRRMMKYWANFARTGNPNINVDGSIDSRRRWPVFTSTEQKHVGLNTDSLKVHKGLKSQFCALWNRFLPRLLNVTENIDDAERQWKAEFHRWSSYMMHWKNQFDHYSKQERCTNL", "assay": "Inhibition of electric eel AChE using acetylthiocholine iodide as substrate assessed as inhibition constant at 0.78 to 12.5 uM preincubated for 10 mins followed by substrate addition and measured for 15 mins by Lineweaver-Burk plot analysis"}, "Cholinesterase [2]": {"target": "T2, Cholinesterase (Equus caballus, UniProt P81908)", "T2 sequence (P81908 whole entry)": "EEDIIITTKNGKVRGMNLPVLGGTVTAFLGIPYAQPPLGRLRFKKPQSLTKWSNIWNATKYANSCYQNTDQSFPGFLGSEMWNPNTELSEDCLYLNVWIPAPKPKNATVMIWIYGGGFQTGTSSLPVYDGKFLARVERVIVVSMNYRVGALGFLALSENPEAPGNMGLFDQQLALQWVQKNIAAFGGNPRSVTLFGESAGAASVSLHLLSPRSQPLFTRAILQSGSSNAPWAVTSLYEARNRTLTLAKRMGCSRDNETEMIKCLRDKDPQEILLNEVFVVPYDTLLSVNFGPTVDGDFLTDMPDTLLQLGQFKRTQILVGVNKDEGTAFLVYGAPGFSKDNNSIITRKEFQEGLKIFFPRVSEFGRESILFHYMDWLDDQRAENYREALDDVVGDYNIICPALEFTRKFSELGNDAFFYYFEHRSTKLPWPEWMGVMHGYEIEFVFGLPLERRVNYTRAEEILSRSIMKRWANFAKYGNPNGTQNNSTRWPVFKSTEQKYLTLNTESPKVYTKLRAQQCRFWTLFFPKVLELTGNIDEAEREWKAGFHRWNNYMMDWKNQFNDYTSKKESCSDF", "assay": "Inhibition of equine serum BChE using butyrylthiocholine iodide as substrate assessed as inhibition constant at 0.78 to 12.5 uM preincubated for 10 mins followed by substrate addition and measured after 15 mins by Lineweaver-Burk plot analysis"}, "Cholinesterase [3]": {"target": "T2, Cholinesterase", "assay": "Inhibition of equine serum BChE using butyrylthiocholine iodide as substrate preincubated for 10 mins followed by substrate addition and measured after 15 mins by Ellman's method"}, "Acetylcholinesterase [4]": {"target": "T1, Acetylcholinesterase", "assay": "Inhibition of electric eel AChE using acetylthiocholine iodide as substrate preincubated for 10 mins followed by substrate addition and measured for 15 mins by Ellman's method"}, "BV-2 [5]": {"system": "BV-2", "assay": "cells", "type": "functional, cell-based", "details": "Mus musculus, BV-2, 24 h", "description": "Cytotoxicity against mouse BV-2 cells assessed as reduction in cell viability measured after 24 hrs by MTT assay"}, "HT-22": {"system": "HT-22", "assay": "cells", "type": "functional, cell-based", "details": "Mus musculus, HT-22, 24 h", "description": "Cytotoxicity against mouse HT-22 cells assessed as reduction in cell viability measured after 24 hrs by MTT assay"}, "[6]": {"target": "Amyloid-beta precursor protein (Homo sapiens) (UniProt P05067)", "sequence (P05067 whole entry)": "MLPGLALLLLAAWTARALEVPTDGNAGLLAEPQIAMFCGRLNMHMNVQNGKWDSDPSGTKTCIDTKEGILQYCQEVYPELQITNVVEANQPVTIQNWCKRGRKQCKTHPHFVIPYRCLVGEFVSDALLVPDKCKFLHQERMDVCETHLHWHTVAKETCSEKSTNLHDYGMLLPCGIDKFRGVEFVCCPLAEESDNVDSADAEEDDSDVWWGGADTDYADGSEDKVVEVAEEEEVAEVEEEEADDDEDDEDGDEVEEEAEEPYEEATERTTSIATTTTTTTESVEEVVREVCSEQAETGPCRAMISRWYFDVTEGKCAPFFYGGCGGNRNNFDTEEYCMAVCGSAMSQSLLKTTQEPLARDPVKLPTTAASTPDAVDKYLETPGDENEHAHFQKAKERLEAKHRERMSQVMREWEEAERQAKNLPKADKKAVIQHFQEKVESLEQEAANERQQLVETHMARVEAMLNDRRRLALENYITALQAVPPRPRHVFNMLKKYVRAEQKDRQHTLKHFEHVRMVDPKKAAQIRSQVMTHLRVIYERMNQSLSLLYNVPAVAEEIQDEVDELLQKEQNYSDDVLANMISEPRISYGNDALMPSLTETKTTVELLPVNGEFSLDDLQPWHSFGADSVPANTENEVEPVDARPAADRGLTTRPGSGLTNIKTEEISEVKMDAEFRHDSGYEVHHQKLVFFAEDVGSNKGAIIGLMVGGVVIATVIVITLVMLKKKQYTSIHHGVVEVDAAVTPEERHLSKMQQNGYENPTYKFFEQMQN", "assay": "Inhibition of amyloid beta (1 to 42 ) (unknown origin) aggregation at 20 umol/L incubated for 24 hrs by thioflavin-T fluorescence method relative to control", "details": "dose 20.0 µmol/L"}, "BV-2 [7]": {"system": "BV-2", "assay": "Anti-neuroinflammation in mouse BV-2 cells assessed as increase in LPS-induced IL-4 production measured after 24 hrs by ELISA", "type": "functional, cell-based", "details": "dose 6.25-25 µmol/L"}, "BV-2 [8]": {"system": "BV-2", "assay": "Anti-neuroinflammation in mouse BV-2 cells assessed as decrease in LPS-induced IL-6 production at 6.25 to 25 umol/L measured after 24 hrs by ELISA", "type": "functional, cell-based", "details": "dose 6.25-25 µmol/L"}, "BV-2 [9]": {"system": "BV-2", "assay": "Anti-neuroinflammation in mouse BV-2 cells assessed as inhibition of LPS-induced NO production at 100 to 3.125 umol/L measured after 24 hrs by Griess method", "type": "functional, cell-based", "details": "dose 100-3.125 µmol/L"}, "BV-2 [10]": {"system": "BV-2", "assay": "Effect of compound on LPS- induced iNOS production in mouse BV-2 cells incubated for 24 hrs by western blot analysis", "type": "functional, cell-based", "details": "dose 6.25-25 µM"}, "BV-2 [11]": {"system": "BV-2", "assay": "Effect of compound on LPS- induced ROS production in mouse BV-2 cells at 6.25 to 25 uM by microscopic analysis", "type": "functional, cell-based", "details": "dose 6.25-25 µM"}, "[12]": {"assay": "Acute toxicity in Sprague-Dawley rat assessed as behavioral abnormality at 2000 mg/kg, IG administered as single dose measured after 14 days", "type": "organism-based", "details": "in vivo, po, 336 h, time 14 day"}, "[13]": {"assay": "Acute toxicity in Sprague-Dawley rat assessed as abnormality in diet at 2000 mg/kg, IG administered as single dose measured after 14 days", "type": "organism-based", "details": "in vivo, po, 336 h, time 14 day"}, "[14]": {"assay": "Acute toxicity in Sprague-Dawley rat assessed as abnormality in body weight at 2000 mg/kg, IG administered as single dose measured after 14 days", "type": "organism-based", "details": "in vivo, po, 336 h, time 14 day"}, "[15]": {"assay": "Acute toxicity in Sprague-Dawley rat assessed as histological changes in heart at 2000 mg/kg, IG administered as single dose measured after 14 days by H and E staining based analysis", "type": "organism-based", "details": "in vivo, po, 336 h, time 14 day"}, "[16]": {"assay": "Acute toxicity in Sprague-Dawley rat assessed as histological changes in liver at 2000 mg/kg, IG administered as single dose measured after 14 days by H and E staining based analysis", "type": "organism-based", "details": "in vivo, po, 336 h, time 14 day"}, "[17]": {"assay": "Acute toxicity in Sprague-Dawley rat assessed as histological changes in spleen at 2000 mg/kg, IG administered as single dose measured after 14 days by H and E staining based analysis", "type": "organism-based", "details": "in vivo, po, 336 h, time 14 day"}, "[18]": {"assay": "Acute toxicity in Sprague-Dawley rat assessed as histological changes in brain at 2000 mg/kg, IG administered as single dose measured after 14 days by H and E staining based analysis", "type": "organism-based", "details": "in vivo, po, 336 h, time 14 day"}, "Mus musculus [19]": {"system": "Mus musculus", "assay": "Anti-alzheimer activity against scopolamine-induced cognitive dysfunction mouse model assessed as decrease in swimming distance at 100 mg/kg, po dosed for 10 days and measured after 30 mins on day 11 by Morris water maze test", "type": "functional, organism-based", "details": "time 10.0 day"}, "[20]": {"assay": "Half life in Sprague-Dawley rat at 100 mg/kg, po measured upto 24 hrs by LC-MS analysis", "type": "ADME, organism-based", "details": "in vivo"}, "[21]": {"assay": "Tmax in Sprague-Dawley rat at 100 mg/kg, po measured upto 24 hrs by LC-MS analysis", "type": "ADME, organism-based", "details": "in vivo"}, "[22]": {"assay": "Cmax in Sprague-Dawley rat at 100 mg/kg, po measured upto 24 hrs by LC-MS analysis", "type": "ADME, organism-based", "set-up": "route oral, dose 100 mg/kg, time <=24", "details": "in vivo"}, "[23]": {"assay": "AUC (0 to t) in Sprague-Dawley rat at 100 mg/kg, po measured upto 24 hrs by LC-MS analysis", "type": "ADME, organism-based", "set-up": "route oral, dose 100 mg/kg, time <=24", "details": "in vivo"}, "[24]": {"assay": "MRT(0 to t) in Sprague-Dawley rat at 100 mg/kg, po measured upto 24 hrs by LC-MS analysis", "type": "ADME, organism-based", "details": "in vivo"}, "Mus musculus [25]": {"system": "Mus musculus", "assay": "Anti-alzheimer activity against scopolamine-induced cognitive dysfunction mouse model assessed as increase in movement distance in central and peripheral area at 50 to 100 mg/kg,po dosed for 10 days and measured after 30 mins on day 11 by open field test", "type": "functional, organism-based", "details": "dose 50-100 mg/kg, time 10.0 day"}, "Mus musculus [26]": {"system": "Mus musculus", "assay": "Anti-alzheimer activity against scopolamine-induced cognitive dysfunction mouse model assessed as increase in rate of time spend in central and peripheral area at 50 to 100 mg/kg,po dosed for 10 days and measured after 30 mins on day 11 by open field test", "type": "functional, organism-based", "details": "dose 50-100 mg/kg, time 10.0 day"}, "Mus musculus [27]": {"system": "Mus musculus", "assay": "Anti-alzheimer activity against scopolamine-induced cognitive dysfunction mouse model assessed as […] of AChE activity in hippocampus at 50 to 100 mg/kg, po dosed for 10 days by colorimetric analysis", "type": "functional, organism-based", "details": "dose 50-100 mg/kg, time 10.0 day"}, "Mus musculus [28]": {"system": "Mus musculus", "assay": "Anti-alzheimer activity against scopolamine-induced cognitive dysfunction mouse model assessed as change in neuron damage in hippocampal CA1 region at 50 to 100 mg/kg, po measured after 10 days by Nissl staining based assay", "type": "functional, organism-based", "details": "Hippocampus, dose 50-100 mg/kg, time 10.0 day"}, "Mus musculus [29]": {"system": "Mus musculus", "assay": "Anti-alzheimer activity against scopolamine-induced cognitive dysfunction mouse model assessed as change in neuron damage in hippocampal CA3 region at 50 to 100 mg/kg, po measured after 10 days by Nissl staining based assay", "type": "functional, organism-based", "details": "Hippocampus, dose 50-100 mg/kg, time 10.0 day"}, "BV-2 [30]": {"system": "BV-2", "assay": "Anti-neuroinflammation in mouse BV-2 cells assessed as decrease in LPS-induced TNF-alpha production at 6.25 to 25 umol/L measured after 24 hrs by ELISA", "type": "functional, cell-based", "details": "dose 6.25-25 µmol/L"}, "BV-2 [31]": {"system": "BV-2", "assay": "Anti-neuroinflammation in mouse BV-2 cells assessed as decrease in LPS-induced iNOS activity at 6.25 to 25 umol/L by fluorescence based assay", "type": "functional, cell-based", "details": "dose 6.25-25 µmol/L"}, "[32]": {"assay": "Acute toxicity in Sprague-Dawley rat assessed as abnormality in living off at 2000 mg/kg, IG administered as single dose measured after 14 days", "type": "organism-based", "details": "in vivo, po, 336 h, time 14 day"}, "[33]": {"assay": "Acute toxicity in Sprague-Dawley rat assessed as lethal dose administered intragastrically as single dose measured after 14 days", "details": "in vivo, po, time 14 day"}, "in vivo": {"assay": "in vivo", "details": "Sprague-Dawley, rat, brain/plasma, 100 mg/kg", "description": "Ratio of drug concentration in brain to plasma in Sprague-Dawley rat at 100 mg/kg measured at 10 mins by LC-MS analysis"}}, "note": "Activity calls are given as the source filed them. No cut-off for these calls is given here.", "data": [{"molecule": "CON(C)C(=O)Oc1ccccc1C(=O)NCCc1c[nH]c2ccccc12", "values": [{"measurement": "Ki", "setting": "Acetylcholinesterase [1]", "result": 1.6, "unit": "µM"}, {"measurement": "Ki", "setting": "Cholinesterase [2]", "result": 0.892, "unit": "µM"}, {"measurement": "IC50", "setting": "Cholinesterase [3]", "result": 1.84, "unit": "µM"}, {"measurement": "IC50", "setting": "Acetylcholinesterase [4]", "result": 3.24, "unit": "µM"}, {"measurement": "IC50", "setting": "BV-2 [5]", "result": 197, "unit": "µM"}, {"measurement": "IC50", "setting": "HT-22", "result": 140, "unit": "µM"}, {"measurement": "inhibition", "setting": "[6]", "result": 40.3, "unit": "%"}, {"measurement": "Activity", "setting": "BV-2 [7]", "result": "Dose-Dependent Effect"}, {"measurement": "Activity", "setting": "BV-2 [8]", "result": "Active"}, {"measurement": "Activity", "setting": "BV-2 [9]", "result": "Active"}, {"measurement": "Activity", "setting": "BV-2 [10]", "result": "Dose-Dependent Effect"}, {"measurement": "Activity", "setting": "BV-2 [11]", "result": "Active"}, {"measurement": "Activity", "setting": "[12]", "result": "Non-Toxic"}, {"measurement": "Activity", "setting": "[13]", "result": "Non-Toxic"}, {"measurement": "Activity", "setting": "[14]", "result": "Non-Toxic"}, {"measurement": "Activity", "setting": "[15]", "result": "Non-Toxic"}, {"measurement": "Activity", "setting": "[16]", "result": "Non-Toxic"}, {"measurement": "Activity", "setting": "[17]", "result": "Non-Toxic"}, {"measurement": "Activity", "setting": "[18]", "result": "Non-Toxic"}, {"measurement": "Activity", "setting": "Mus musculus [19]", "result": "Active"}, {"measurement": "half-life", "setting": "[20]", "result": 5.34, "unit": "h"}, {"measurement": "Tmax", "setting": "[21]", "result": 4.8, "unit": "min"}, {"measurement": "Cmax", "setting": "[22]", "result": 3030, "unit": "ng/mL"}, {"measurement": "AUC(0-t) at 24 h", "setting": "[23]", "result": 3900, "unit": "ng·h/mL"}, {"measurement": "MRT last at 24 h", "setting": "[24]", "result": 4.89, "unit": "h"}, {"measurement": "Activity", "setting": "Mus musculus [25]", "result": "Dose-Dependent Effect"}, {"measurement": "Activity", "setting": "Mus musculus [26]", "result": "Dose-Dependent Effect"}, {"measurement": "Activity", "setting": "Mus musculus [27]", "result": "Active"}, {"measurement": "Activity", "setting": "Mus musculus [28]", "result": "Active"}, {"measurement": "Activity", "setting": "Mus musculus [29]", "result": "Active"}, {"measurement": "Activity", "setting": "BV-2 [30]", "result": "Active"}, {"measurement": "Activity", "setting": "BV-2 [31]", "result": "Active"}, {"measurement": "Activity", "setting": "[32]", "result": "Non-Toxic"}, {"measurement": "LD50 at 336 h", "setting": "[33]", "result": "> 2000", "unit": "mg/kg"}, {"measurement": "Kp at 10 min", "setting": "in vivo", "result": 15.7}]}]}
